Assays:
[1] = biological target: T1, ERα (Homo sapiens, UniProt P03372); assay: Estrogenic activity luciferase reporter assay in T47D-ERE-Luc^Neo; type: cell-based; conditions: 24 h incubation, read-out: EC50, oestrogenic activity (transcriptional activity of oestrogen-responsive luciferase reporter)
T1 construct: T47D-ERE-Luc^Neo, an ERα-positive cell line, stably transfected with a luciferase reporter cassette; endogenous in cells; host or cells: T47D-ERE-Luc^Neo
T1 sequence (P03372 1-595): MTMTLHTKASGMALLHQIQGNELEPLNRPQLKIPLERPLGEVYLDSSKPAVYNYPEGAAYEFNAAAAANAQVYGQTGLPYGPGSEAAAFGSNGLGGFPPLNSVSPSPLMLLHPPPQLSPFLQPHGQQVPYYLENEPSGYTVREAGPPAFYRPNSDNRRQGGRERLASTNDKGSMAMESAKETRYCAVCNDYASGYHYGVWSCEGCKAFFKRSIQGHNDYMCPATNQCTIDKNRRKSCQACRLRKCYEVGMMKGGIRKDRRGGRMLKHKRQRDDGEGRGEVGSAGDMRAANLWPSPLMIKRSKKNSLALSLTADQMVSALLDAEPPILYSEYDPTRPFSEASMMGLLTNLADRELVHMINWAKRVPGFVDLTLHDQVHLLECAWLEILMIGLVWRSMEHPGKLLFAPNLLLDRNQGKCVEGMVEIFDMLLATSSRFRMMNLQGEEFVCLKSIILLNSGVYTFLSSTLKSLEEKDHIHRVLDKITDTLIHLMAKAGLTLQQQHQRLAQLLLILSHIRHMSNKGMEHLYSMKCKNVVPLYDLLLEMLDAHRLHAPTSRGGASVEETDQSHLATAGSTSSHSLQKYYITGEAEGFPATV
Description: The in vitro oestrogenic activity of our test compound was determined by utilizing the T47D-ERE-Luc^Neo, an ERα-positive cell line, stably transfected with a luciferase reporter cassette. On the first day of the experiment, cells were seeded onto 96-well microplates in a density of 50,000 cells/well. After 72 h of incubation, the medium was changed to phenol red-free RPMI, containing 10% charcoal-stripped FBS. This step was repeated for another four consecutive days to deplete the intracellular oestrogen content. […]. After 24 h of incubation, the supernatant was removed from the wells and the One-Glo™ firefly luciferase reagent was added according to the manufacturer’s instructions (Promega Corp., Madison, WI, USA). Following a 5 min incubation period, the luciferase enzyme activity was measured using a luminometer (FLUOstar OPTIMA, BMG Labtech GmbH, Ortenberg, Germany). Each concentration was assayed in triplicates, repeated twice. Relative luminescence units (RLU) were normalised to percentage values, and sigmoidal concentration–response curves were fitted to the data points using GraphPad Prism 9.5.1 (GraphPad Software, San Diego, CA, USA).

[2] = tested on: NIH/3T3 cells; design: method as in PMID 35091086; conditions: read-out: IC50 on non-cancerous mouse fibroblast (NIH/3T3) cells; cited from earlier work
[3] = tested on: NIH/3T3 cells; assay: Growth inhibition on non-cancerous mouse fibroblast cells, previous study; type: cell-based; conditions: ratio of IC50 values of NIH/3T3 and HeLa
[4] = tested on: HeLa cells; assay: Cell cycle analysis using flow cytometry; type: cell-based, human; conditions: 18 h incubation; 1.25, 2.5, 5.0 and 10 µM
Description: Cell cycle analysis was performed to elucidate a possible mechanism of action of the compound 4a. Cells were seeded in a 12-well plate at a density of 120,000 cells per well and incubated overnight. […] The supernatant from each treatment was collected separately, and the cells were washed with PBS and detached using trypsin. The resulting supernatant containing the cells was centrifuged at 1300 rpm for 5 min. The cells were then washed with PBS and fixed with 70% ice-cold ethanol at −20 °C for 20 min. To stain the DNA content, the cells were treated with 300 µL of staining solution, which consisted of 10 µg/mL PI, 0.1% sodium citrate, 0.1% triton-X, and 10 µg/mL RNase-A, all dissolved in injectable water. The staining process was carried out in the dark for 30 min. The cells were subjected to analysis using a flow cytometer (CytoFLEX-V0-B4-RO, Beckman Coulter, Brea, CA, USA) with a minimum of 10,000 events per sample being evaluated during each analysis. The data obtained were processed using ModFit LT 3.3.11 software (Verity Software House, Topsham, ME, USA). Untreated cells were utilised as the control group. Apoptotic cells were identified as the hypodiploid (subG1) cell population. The cell cycle analysis experiments were conducted twice, with three parallel samples for each condition.

[5] = tested on: HeLa cells; assay: MTT assay for cell viability, 24 h; type: cell-based, human; conditions: concentrations corresponding the IC50 of 4a
Description: (§1) The extent of the inhibition of cell proliferation by the test compound was determined using the MTT (3-(4,5-dimethylthiazol-2-yl)-2,5-diphenyltetrazolium bromide) assay. Exponentially growing HeLa cells were seeded into 96-well plates at a density of 1.0 × 10^4 cells per well in 100 µL of media and incubated for 24 h to facilitate cell attachment. Subsequently, the cells were treated with test compounds formulated in 100 µL of media at six different concentrations of compounds ranging, from 0.1 to 30 µmol. The control group received only media treatment. After 24 h of incubation, 22 µL of MTT solution (5 mg/mL in PBS; Duchefa Biochemie BV, Haarlem, The Netherlands) was added and incubated for 4 h at 37 °C in a humidified 5% CO2 environment. The medium was subsequently aspirated, and 100 µL of DMSO was added to dissolve the formazan crystals produced by the intact cell’s mitochondrial enzymes. The mixture was then mechanically shaken for 30 min. Absorbance measurements were taken at 545 nm using a microplate UV-VIS reader (SPECTRO star Nano, BMG Labtech GmbH, Offenburg, Germany), followed by the calculation of the percentage cell viability using the GraphPad Prism 5.01 (GraphPad Software, San Diego, CA, USA). All in vitro experiments were performed twice with five replicates. Stock solutions of the tested substances (10 mM) were prepared in DMSO.

[6] = tested on: HeLa cells; assay: Boyden chamber invasion assay; type: cell-based, human; conditions: 5.0 µM, 24 h
Description: Compound 4a’s capacity to inhibit tumour invasion was assessed using the Boyden chamber assay, a three-dimensional model, on a profoundly invasive HPV-18 positive cell line. The polyethylene terephthalate (PET) membrane (8 μm pore size) and the thin layer of the matrigel basement matrix in special Boyden chamber inserts (BioCoat™ Matrigel® Invasion Chambers, Corning Inc., Corning, NY, USA) were prehydrated (2 h, serum-free EMEM) and placed onto a 24-well plate. The cell suspension (50,000 cells/insert in 500 μL) prepared in the serum-free EMEM with sub-antiproliferative concentrations (1.0, 2.5, and 5.0 μM) of 4a was nested in the upper compartments. Untreated cells were used as controls, with the EMEM medium supplemented with 10% FBS, and served as a chemoattractant in the lower chambers. After 24 h of incubation, supernatants and non-invading cells were removed cautiously with a cotton swab. […] Subsequently, 4 images per chamber were taken with a Nikon Eclipse TS100 fluorescence microscope (Nikon Instruments Europe, Amstelveen, The Netherlands), and the number of invading cells were enumerated using ImageJ software (National Institutes of Health, Bethesda, MD, USA). The invasion rate was determined by comparing the number of invaded cells in the treated samples with the number of invaded cells in the untreated control samples.

[7] = tested on: T47D cells; assay: MTT assay, growth inhibition of T47D, 72 h; type: cell-based; conditions: Homo sapiens, 72 h incubation
Description: as §1, with “The medium was subsequently aspirated, and 100 µL of DMSO was added to dissolve the formazan crystals produced by the intact cell’s mitochondrial enzymes. The mixture was then mechanically shaken for 30 min.” left out, “All in vitro experiments were performed twice with five replicates. Stock solutions of the tested substances (10 mM) were prepared in DMSO.” left out
The MTT assay was conducted as described in Section 2.5, with the incubation time extended to 72 h. IC50 values were determined by fitting sigmoidal concentration–response curves using GraphPad Prism 9.5.1 (GraphPad Software, San Diego, CA, USA). […]

[8] = tested on: HeLa cells; assay: Hoechst 33258-propidium iodide fluorescent double staining; type: cell-based, human; conditions: 1.0, 2.5, 5.0 and 10 μM, 48 h
Description: Fluorescence staining was conducted to observe the morphological changes induced by the apoptotic process in cells treated with the compound 4a. HeLa cell suspension was seeded into 6-well plates at a density of 150,000 cells per well and allowed to repose for 24 h before exposure to different concentrations of our test substance (1.0, 2.5, 5.0, and 10 μM) for 48 h. To distinguish apoptotic and necrotic cell populations, the cells were stained with lipophilic Hoechst 33258 (1 μg/mL, HO) and hydrophilic propidium iodide (3 μg/mL, PI) for 90 min at 37 °C in a CO2 incubator. Following the removal of the remaining dye-containing medium, a Nikon Eclipse TS100 fluorescence microscope (Nikon Instruments Europe, Amstelveen, The Netherlands) was used to capture at least 4 images per condition. The microscope was equipped with suitable optical blocks for Hoechst 33258 (excitation: 360/40 nm bandpass filter, emission: 460/50 nm bandpass filter, and 400 nm dichromatic mirror) and propidium iodide (excitation: 500/20 nm bandpass filter, emission: 520 nm long pass filter, and 515 nm dichromatic mirror). This technique enables differentiation between early apoptosis and secondary necrosis by examining the nuclear morphology and membrane integrity of cells. The HO dye solution readily permeates into the nuclei of all cells, resulting in a uniform blue staining in the nuclei of the viable cells. […]

[9] = tested on: tubulin; assay: Cell-free tubulin polymerisation assay; type: biochemical
Description: To assess the impact of test compound 4a on the microtubular system, a cell-free tubulin polymerisation assay was conducted using a commercially available kit (Cytoskeleton Inc., Denver, CO, USA), largely in accordance with manufacturer’s instructions, though with some modifications. The assay was performed in a pre-heated 96-well plate, with each condition tested in two parallel wells. Two wells were assigned as the experimental control and received 10 µL of general tubulin buffer (GTB), while the next two wells were assigned as the positive control and received a similar volume of 10 µM paclitaxel. Various concentrations of the test compound (50, 150, 300, and 600 µM) were added in similar volumes, and the polymerisation reaction was initiated by adding 100 µL of tubulin to each well. Absorbance readings were measured every minute for 60 min at 340 nm, following a kinetic measurement protocol. A similar experiment was repeated with the absence of glycerol in the reaction mixture and in exclusion of 50, 150 µM of our test compound. […] The maximum rate of tubulin polymerisation (Vmax) was determined as the highest difference between a set of three absorbance values at any two consecutive intervals.

[10] = tested on: HeLa cells; design: method as in PMID 35091086; conditions: HeLa cell line; cited from earlier work
[11] = tested on: MCF7 cells; assay: MTT assay, growth inhibition of MCF7, 72 h; type: cell-based; conditions: Homo sapiens, 72 h incubation
[12] = tested on: HeLa cells; assay: Wound-healing assay; type: cell-based, human; conditions: 5.0 µM
Description: Due to the significant contribution of cell motility to tumour metastasis, we performed a wound-healing assay, utilizing a 2D model, to explore the antimigratory potential of compound 4a on HeLa cells. Special silicon inserts (Ibidi GmbH, Gräfelfing, Germany) were utilised, with 50,000 cells per well implanted on 12-well plates in a standard EMEM medium supplemented with 10% FBS. Following overnight incubation, the inserts were carefully removed, and the confluent monolayers were washed with PBS. Cells were then treated with sub-antiproliferative concentrations (1.0, 2.5 and 5.0 µM) of compound 4a in the EMEM medium containing 2% FBS. Images were then captured at 0, 24, and 48 h post-treatment using a Nikon Eclipse TS100 fluorescence microscope (Nikon Instruments Europe, Amstelveen, The Netherlands). Untreated cells served as the control, and the rate of wound closure (the decrease in size of the gaps devoid of cells) was measured using ImageJ software v1.54 (National Institutes of Health, Bethesda, MD, USA).

Row | Compound | EC50 [1] | IC50 [2] | selectivity index (SI) [3] | effect on G2/M phase population [4] | effect on hypodiploid sub-G1 population [4] | cell viability change after 24 h incubation [5] | decrease in number of invading cells (anti-invasive activity) vs control [6] | IC50 [7] | nuclei emitting intense blue fluorescence (DNA condensation, early apoptosis) [8] | concentration of maximum tubulin polymerisation effect ([9]; absence of glycerol) | effect on tubulin polymerisation relative to the control ([9]; all tested concentrations (50, 150, 300, 600 µM), presence or absence of glycerol) | IC50 [10] | IC50 [11] | reduction in the migratory capacity of HeLa cells relative to the control ([12]; 24 h of treatment) | reduction in the migratory capacity of HeLa cells relative to the control ([12]; 48 h of treatment)
1 | COc1cc2c(cc1O)CC[C@@H]1[C@@H]2CC[C@]2(C)[C@@H](O)CC[C@@H]12 [Compound 2ME, 2-methoxyestradiol] | 11.1 nM | – | – | – | – | – | – | – | – | – | – | – | – | – | –
2 | CN(C)Cc1cc2c(cc1O)CC[C@@H]1[C@@H]2CC[C@]2(C)[C@@H](O)CC[C@@H]12 [Compound 4a, 2-[(dimethylamino)methyl]-oestradiol] | 653 nM | 70.4 µM | 15.6 | significant cell arrest at the G2/M phase | significant rise in the hypodiploid sub-G1 population | no significant alteration in cell viability | more than 95% | 16.9 µM | concentration-dependent escalation | approximately 300 µM | significant increase in tubulin polymerisation | 4.53 µM | 19.2 µM | 53.9% | 39.6%
